Laboratory results taken from ChEMBL document CHEMBL5614431, “Discovery of 1,3,4-oxadiazoles with slow-action activity against Plasmodium falciparum malaria parasites” (Eur J Med Chem, 2024).
Calls of active or inactive are those of the source. No cut-off for these calls is given here.

Test system: Plasmodium falciparum
Assay: Antimalarial activity against synchronous ring stage Plasmodium falciparum 3D7 infected in human Erythrocyte assessed as inhibition of parasite growth incubated for 48 hrs by [3H]-hypoxanthine incorporation assay
Type: functional, organism-based
Settings: 3D7, Erythrocyte

Structure (SMILES)	IC50 [µM]
O=S(=O)(c1nnc(N2CCOCC2)o1)C1CCCCC1	> 50
CC1CCN(c2nnc(S(=O)(=O)Cc3ccc(Cl)c(Cl)c3)o2)CC1	11.5

Test system: Plasmodium falciparum
Assay: Antimalarial activity against synchronous ring stage Plasmodium falciparum 3D7 infected in human Erythrocyte assessed as inhibition of parasite growth incubated for 96 hrs by [3H]-hypoxanthine incorporation assay
Type: functional, organism-based
Settings: 3D7, Erythrocyte

Structure (SMILES)	IC50 [µM]
O=S(=O)(c1nnc(N2CCOCC2)o1)C1CCCCC1	0.55
CC1CCN(c2nnc(S(=O)(=O)Cc3ccc(Cl)c(Cl)c3)o2)CC1	0.16

Test system: not listed separately
Assay: Selectivity ratio of IC50 for antimalarial activity against synchronous ring stage Plasmodium falciparum 3D7 infected in human Erythrocyte assessed as inhibition of parasite growth incubated for 48 hrs by [3H]-hypoxanthine incorporation assay to IC50 for antimalarial activity against synchronous ring stage Plasmodium falciparum 3D7 infected in human Erythrocyte assessed as inhibition of parasite growth incubated for 48 hrs by [3H]-hypoxanthine incorporation assay
Type: functional
Settings: not given

Structure (SMILES)	Ratio IC50
O=S(=O)(c1nnc(N2CCOCC2)o1)C1CCCCC1	>91
CC1CCN(c2nnc(S(=O)(=O)Cc3ccc(Cl)c(Cl)c3)o2)CC1	72

Test system: not listed separately
Assay: Cytotoxicity against human NFF cells assessed as reduction in cell viability incubated for 72 hrs by SRB assay
Type: toxicity, cell-based
Settings: not given

Structure (SMILES)	IC50 at 72 h [µM]
O=S(=O)(c1nnc(N2CCOCC2)o1)C1CCCCC1	> 100
CC1CCN(c2nnc(S(=O)(=O)Cc3ccc(Cl)c(Cl)c3)o2)CC1	26

Test system: not listed separately
Assay: Selectivity index, ratio of IC50 for cytotoxicity against human NFF cells to IC50 for antimalarial activity against synchronous ring stage Plasmodium falciparum 3D7 infected in human Erythrocyte assessed as inhibition of parasite growth incubated for 96 hrs
Type: toxicity, cell-based
Settings: read-out: Ratio IC50

Structure (SMILES)	selectivity ratio at 96 h
O=S(=O)(c1nnc(N2CCOCC2)o1)C1CCCCC1	> 182
CC1CCN(c2nnc(S(=O)(=O)Cc3ccc(Cl)c(Cl)c3)o2)CC1	162

Test system: Plasmodium falciparum
Assay: Antimalarial activity against multidrug-resistant synchronous ring stage Plasmodium falciparum Dd2 infected in human Erythrocyte assessed as inhibition of parasite growth incubated for 48 hrs by [3H]-hypoxanthine incorporation assay
Type: functional, organism-based
Settings: not given

Structure (SMILES)	IC50 [µM]
O=S(=O)(c1nnc(N2CCOCC2)o1)C1CCCCC1	> 25
CC1CCN(c2nnc(S(=O)(=O)Cc3ccc(Cl)c(Cl)c3)o2)CC1	10.1

Test system: Plasmodium falciparum
Assay: Antimalarial activity against multidrug-resistant synchronous ring stage Plasmodium falciparum Dd2 infected in human Erythrocyte assessed as inhibition of parasite growth incubated for 96 hrs by [3H]-hypoxanthine incorporation assay
Type: functional, organism-based
Settings: not given

Structure (SMILES)	IC50 [µM]
O=S(=O)(c1nnc(N2CCOCC2)o1)C1CCCCC1	0.5
CC1CCN(c2nnc(S(=O)(=O)Cc3ccc(Cl)c(Cl)c3)o2)CC1	0.07

Test system: not listed separately
Assay: Selectivity ratio of IC50 for antimalarial activity against multidrug-resistant synchronous ring stage Plasmodium falciparum Dd2 infected in human Erythrocyte assessed as inhibition of parasite growth incubated for 48 hrs by [3H]-hypoxanthine incorporation assay to IC50 for antimalarial activity against multidrug-resistant synchronous ring stage Plasmodium falciparum Dd2 infected in human …
Type: functional
Settings: not given

Structure (SMILES)	Ratio IC50
O=S(=O)(c1nnc(N2CCOCC2)o1)C1CCCCC1	>50
CC1CCN(c2nnc(S(=O)(=O)Cc3ccc(Cl)c(Cl)c3)o2)CC1	145

Test system: Plasmodium falciparum
Assay: Resistance index, ratio of IC50 for antimalarial activity against multidrug-resistant synchronous ring stage Plasmodium falciparum Dd2 infected in human Erythrocyte assessed as inhibition of parasite growth incubated for 96 hrs by [3H]-hypoxanthine incorporation assay to IC50 for antimalarial activity against synchronous ring stage Plasmodium falciparum 3D7 infected in human Erythrocyte assessed …
Type: toxicity, organism-based
Settings: not given

Structure (SMILES)	Ratio IC50
O=S(=O)(c1nnc(N2CCOCC2)o1)C1CCCCC1	1
CC1CCN(c2nnc(S(=O)(=O)Cc3ccc(Cl)c(Cl)c3)o2)CC1	0.4

Test system: Plasmodium falciparum
Assay: Antimalarial activity against synchronous ring stage Plasmodium falciparum 3D7 infected in human Erythrocyte assessed as inhibition of parasite growth incubated for 96 hrs supplemented with IPP by [3H]-hypoxanthine incorporation assay
Type: functional, organism-based
Settings: 3D7, Erythrocyte

Structure (SMILES)	IC50 [µM]
O=S(=O)(c1nnc(N2CCOCC2)o1)C1CCCCC1	1.79
CC1CCN(c2nnc(S(=O)(=O)Cc3ccc(Cl)c(Cl)c3)o2)CC1	0.2

Test system: not listed separately
Assay: Selectivity ratio of IC50 for antimalarial activity against synchronous ring stage Plasmodium falciparum 3D7 infected in human Erythrocyte assessed as inhibition of parasite growth incubated for 96 hrs supplemented with IPP by [3H]-hypoxanthine incorporation assay to IC50 for antimalarial activity against synchronous ring stage Plasmodium falciparum 3D7 infected in human Erythrocyte assessed as …
Type: functional
Settings: not given

Structure (SMILES)	Ratio IC50
O=S(=O)(c1nnc(N2CCOCC2)o1)C1CCCCC1	3
CC1CCN(c2nnc(S(=O)(=O)Cc3ccc(Cl)c(Cl)c3)o2)CC1	1

Test system: not listed separately
Assay: Metabolic stability in human liver microsomes assessed as half life
Type: ADME, Microsome
Settings: not given

Structure (SMILES)	half-life [min]
O=S(=O)(c1nnc(N2CCOCC2)o1)C1CCCCC1	> 255
CC1CCN(c2nnc(S(=O)(=O)Cc3ccc(Cl)c(Cl)c3)o2)CC1	3

Test system: not listed separately
Assay: Metabolic stability in mouse liver microsomes assessed as half life
Type: ADME, Microsome
Settings: not given

Structure (SMILES)	half-life [min]
O=S(=O)(c1nnc(N2CCOCC2)o1)C1CCCCC1	99
CC1CCN(c2nnc(S(=O)(=O)Cc3ccc(Cl)c(Cl)c3)o2)CC1	< 2

Test system: not listed separately
Assay: Apparent permeability of the compound in human Caco-2 cells across apical to basolateral side
Type: ADME, cell-based
Settings: not given

Structure (SMILES)	Papp A→B [×10⁻⁶ cm/s]
O=S(=O)(c1nnc(N2CCOCC2)o1)C1CCCCC1	86

Test system: not listed separately
Assay: Cmax in non fasted female BALB/c mouse plasma at 100 mg/kg, po via gavage and measured upto 24 hrs by LC-MS analysis
Type: ADME, organism-based
Settings: not given

Structure (SMILES)	Cmax [µM]
O=S(=O)(c1nnc(N2CCOCC2)o1)C1CCCCC1	7.61

Test system: not listed separately
Assay: Tmax in non fasted female BALB/c mouse at 100 mg/kg, po via gavage and measured upto 24 hrs by LC-MS analysis
Type: ADME, organism-based
Settings: in vivo

Structure (SMILES)	Tmax [min]
O=S(=O)(c1nnc(N2CCOCC2)o1)C1CCCCC1	15

Test system: not listed separately
Assay: AUC (0 to t) in non fasted female BALB/c mouse plasma at 100 mg/kg, po via gavage and measured after 7.5 hrs by LC-MS analysis
Type: ADME, organism-based
Settings: not given

Structure (SMILES)	AUC(0-t) at 7.5 h [µM·h]
O=S(=O)(c1nnc(N2CCOCC2)o1)C1CCCCC1	11.5

Test system: not listed separately
Assay: Toxicity in female BALB/c mouse assessed as adverse clinical effect at 116 mg/kg, po via gavage administered once for 3 days
Type: organism-based
Settings: in vivo, 72 h, time 3 day

Structure (SMILES)	Activity
O=S(=O)(c1nnc(N2CCOCC2)o1)C1CCCCC1	Non-Toxic

Test system: not listed separately
Assay: Toxicity in female BALB/c mouse assessed as appearance of ruffled coats in animal at 116 mg/kg, po via gavage administered once daily for 3 days
Type: organism-based
Settings: in vivo, 72 h, time 3 day

Structure (SMILES)	Activity
O=S(=O)(c1nnc(N2CCOCC2)o1)C1CCCCC1	Toxic

Test system: not listed separately
Assay: Toxicity in female BALB/c mouse assessed as effect on liver at 116 mg/kg, po via gavage administered once daily for 3 days
Type: organism-based
Settings: in vivo, 72 h, time 3 day

Structure (SMILES)	Activity
O=S(=O)(c1nnc(N2CCOCC2)o1)C1CCCCC1	Non-Toxic

Test system: not listed separately
Assay: Toxicity in female BALB/c mouse assessed as effect on kidney at 116 mg/kg, po via gavage administered once daily for 3 days
Type: organism-based
Settings: in vivo, 72 h, time 3 day

Structure (SMILES)	Activity
O=S(=O)(c1nnc(N2CCOCC2)o1)C1CCCCC1	Non-Toxic

Test system: not listed separately
Assay: Toxicity in female BALB/c mouse assessed as adverse clinical effect at 116 mg/kg, po via gavage administered twice for 3 days
Type: organism-based
Settings: in vivo, 72 h, time 3 day

Structure (SMILES)	Activity
O=S(=O)(c1nnc(N2CCOCC2)o1)C1CCCCC1	Non-Toxic

Test system: not listed separately
Assay: Toxicity in female BALB/c mouse assessed as appearance of ruffled coats in animal at 116 mg/kg, po via gavage administered twice daily for 3 days
Type: organism-based
Settings: in vivo, 72 h, time 3 day

Structure (SMILES)	Activity
O=S(=O)(c1nnc(N2CCOCC2)o1)C1CCCCC1	Toxic

Test system: not listed separately
Assay: Toxicity in female BALB/c mouse assessed as effect on liver at 116 mg/kg, po via gavage administered twice daily for 3 days
Type: organism-based
Settings: in vivo, 72 h, time 3 day

Structure (SMILES)	Activity
O=S(=O)(c1nnc(N2CCOCC2)o1)C1CCCCC1	Non-Toxic

Test system: not listed separately
Assay: Toxicity in female BALB/c mouse assessed as effect on kidney at 116 mg/kg, po via gavage administered twice daily for 3 days
Type: organism-based
Settings: in vivo, 72 h, time 3 day

Structure (SMILES)	Activity
O=S(=O)(c1nnc(N2CCOCC2)o1)C1CCCCC1	Non-Toxic

Test system: Plasmodium berghei
Assay: Antimalarial activity against Plasmodium berghei ANKA infected in female BALB/c mouse model assessed as reduction in parasitemia at 100 mg/kg, po qd pre-infected for 2 hrs followed by compound addition and measured after 3 days by microscopic analysis
Type: functional, organism-based
Settings: time 3.0 day

Structure (SMILES)	Activity
O=S(=O)(c1nnc(N2CCOCC2)o1)C1CCCCC1	Active

Test system: Plasmodium berghei
Assay: Antimalarial activity against Plasmodium berghei ANKA infected in female BALB/c mouse model assessed as reduction in parasitemia at 100 mg/kg, po bid pre-infected for 2 hrs followed by compound addition and measured after 3 days by microscopic analysis
Type: functional, organism-based
Settings: time 3.0 day

Structure (SMILES)	Activity
O=S(=O)(c1nnc(N2CCOCC2)o1)C1CCCCC1	Active

Test system: not listed separately
Assay: Chemical stability of the compound in aqueous buffer/THF assessed as degradation measured over 24 hrs
Type: physicochemical
Settings: not given

Structure (SMILES)	Stability
O=S(=O)(c1nnc(N2CCOCC2)o1)C1CCCCC1	Stable

Test system: not listed separately
Assay: Chemical stability of the compound in 1:1 mixture of 6M aqueous hydrochloric acid/THF assessed as degradation measured over 20 hrs
Type: physicochemical
Settings: buffer

Structure (SMILES)	Stability
O=S(=O)(c1nnc(N2CCOCC2)o1)C1CCCCC1	Unstable

Test system: not listed separately
Assay: Plasma concentration in female BALB/c mouse at 100 mg/kg, po measured after 7.5 hrs
Type: ADME, organism-based
Settings: in vivo, BLD = below limit of detection

Structure (SMILES)	Cp
O=S(=O)(c1nnc(N2CCOCC2)o1)C1CCCCC1	Bld
